Measured values taken from US12576169B2, “Silicon-fluoride acceptor substituted radiopharmaceuticals and precursors thereof” (Technische Universität München, priority 2019, dated 2026).
Like-named read-outs stand apart in the source and are kept apart here. *1 amine or outer side, *2 acyl side, *3 side chain or, on linkers, in order; H or OH if unused. Where a SMILES comes first, the peptide text is derived from it. Side-chain parts run from the residue outwards. [ ]: non-standard residue; d: D form. The star is where a group is joined. X1 = O=C(O)CC[C@H](NC(=O)N[C@@H](CCC(=O)N[C@H](CCCN*)C(=O)O)C(=O)O)C(=O)O; Benzoyl(4-SiFtBu2) = CC(C)(C)[Si](F)(c1ccc(C(=O)*)cc1)C(C)(C)C; dCit = NC(=O)NCCC[C@@H](N)C(=O)O; Suc = O=C(CCC(=O)[*:2])[*:1]; dOrn = NCCC[C@@H](N)C(=O)O; dDap = NC[C@@H](N)C(=O)O

Columns and labels:
[1] = molecular target: HSA (Homo sapiens, UniProt P02768); details: cited from earlier work; for Lit. HSA binding: literature values (Yamazaki, Kanaoka 2004); for Log K HSA: logarithmic K of HSA binding literature values
Chain of HSA (P02768 25-609): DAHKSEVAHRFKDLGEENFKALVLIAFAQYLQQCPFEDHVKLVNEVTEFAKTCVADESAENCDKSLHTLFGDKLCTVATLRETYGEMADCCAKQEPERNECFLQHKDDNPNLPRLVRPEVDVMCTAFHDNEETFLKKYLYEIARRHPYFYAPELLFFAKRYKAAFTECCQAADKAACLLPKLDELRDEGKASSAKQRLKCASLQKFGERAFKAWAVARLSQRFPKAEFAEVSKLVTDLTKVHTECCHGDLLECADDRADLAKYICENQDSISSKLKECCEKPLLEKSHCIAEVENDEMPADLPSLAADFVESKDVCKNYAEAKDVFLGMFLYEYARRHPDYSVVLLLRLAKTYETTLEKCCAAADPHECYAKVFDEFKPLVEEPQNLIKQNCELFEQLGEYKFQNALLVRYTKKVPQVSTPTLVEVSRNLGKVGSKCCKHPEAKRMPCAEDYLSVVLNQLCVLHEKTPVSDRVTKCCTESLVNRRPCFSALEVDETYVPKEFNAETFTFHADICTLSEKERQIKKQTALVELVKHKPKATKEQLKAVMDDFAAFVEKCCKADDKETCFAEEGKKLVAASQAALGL

[2] = molecular target: T1, PSMA (Homo sapiens, UniProt Q04609); assay: IC50 determination: PSMA binding affinity, competition with [125I]XII on LNCaP cells
T1 sequence (Q04609 whole entry): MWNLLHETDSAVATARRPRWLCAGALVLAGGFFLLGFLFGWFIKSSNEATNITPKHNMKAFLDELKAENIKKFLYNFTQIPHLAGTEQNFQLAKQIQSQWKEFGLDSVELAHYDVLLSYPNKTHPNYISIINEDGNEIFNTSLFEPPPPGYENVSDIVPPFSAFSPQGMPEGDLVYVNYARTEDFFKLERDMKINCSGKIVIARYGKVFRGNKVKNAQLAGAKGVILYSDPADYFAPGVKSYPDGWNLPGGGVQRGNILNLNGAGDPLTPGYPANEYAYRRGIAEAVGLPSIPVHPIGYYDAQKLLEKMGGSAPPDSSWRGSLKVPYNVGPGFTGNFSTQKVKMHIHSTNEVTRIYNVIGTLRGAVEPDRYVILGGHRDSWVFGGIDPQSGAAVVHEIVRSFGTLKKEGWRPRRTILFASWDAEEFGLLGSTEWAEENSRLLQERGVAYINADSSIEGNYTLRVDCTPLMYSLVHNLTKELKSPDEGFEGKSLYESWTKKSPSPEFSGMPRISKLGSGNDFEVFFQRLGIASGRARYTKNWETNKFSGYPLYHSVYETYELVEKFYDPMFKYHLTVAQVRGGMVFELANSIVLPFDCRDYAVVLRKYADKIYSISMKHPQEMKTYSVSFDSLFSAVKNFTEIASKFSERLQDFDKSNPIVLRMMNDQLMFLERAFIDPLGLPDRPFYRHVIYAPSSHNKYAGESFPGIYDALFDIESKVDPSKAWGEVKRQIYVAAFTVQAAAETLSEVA
Description: LNCaP cells were grown in Dulbecco's Modified Eagle Medium/Nutrient Mixture F-12 (DMEM/F-12, add. 10% fetal calf serum (FCS), v/v) and maintained at 37° C. in a humidified 5% CO2 atmosphere. […] After removal of the culture medium, LNCaP cells were treated with HBSS (add. 1% BSA, v/v, 4° C., 500 μL) and subsequently left 15 min on ice for equilibration in HBSS (add. 1% BSA, v/v, 4° C., 200 μL). […] For the control series, HBSS (add. 1% BSA, v/v, 25 μL) was used instead of the SiFA-PSMA ligand solution. Each concentration and the control were prepared in triplicate. After 1 h incubation on ice, the assay medium was removed and cells were washed with HBSS (200 μL, 4° C.). […] NaOH (200 μL) for at least 10 min and the resulting cell lysate was removed. The wells were treated again with 1 M aq. […] The experiment was repeated for at least three times and the IC50 value calculated using the GraphPad PRISM 8.0.2 software (Graphpad Software Inc., La Jolla, United States).

[3] = n-Octanol-PBS partition coefficient (logD7.4); type: physicochemical; details: 18F-labeled ligand; n-octanol/PBS pH=7.4; mean ± SD (n = 5)
Description: Approx. 0.5 MBq of the ^18F-labeled SiFA-PSMA ligand were added into a test tube containing n-octanol (500 μL) and PBS (500 μL, pH=7.4). After vigorously shaking the two-phase mixture for 3 min at rt, the test tube was centrifuged at 9.000 rpm for 5 min to achieve quantitative phase separation. Finally, 150 μL of each layer were pipetted off and measured for activity using a gamma counter. After repeating the experiment for at least five times, the n-octanol-PBS partition coefficient log D7.4 was calculated according to following formula.

[4] = test system: LNCaP cells; assay: Internalization of 18F-labeled ligands into LNCaP cells; type: cell-based, human; details: internalized activity at 1 h in % of reference [125I]XII; c = 0.5 nM; LNCaP cells (125.000 cells/well); 37° C., DMEM/F-12 add. 5% BSA; corrected for non-specific binding (10 μm PMPA); mean ± SD (n = 3)
Description: LNCaP cells were grown in DMEM/F-12 (add. 10% FCS, v/v) and maintained at 37° C. in a humidified 5% CO2 atmosphere. […] Subsequent to the removal of the culture medium, cells were washed with DMEM-F12 (add. 5% BSA, v/v, 500 μL) and left to equilibrate in DMEM-F12 (add. 5% BSA, v/v, 200 μL) at 37° C. for 15 min. Each well was treated with either DMEM-F12 (add. 5% BSA, v/v, 25 μL) or a 2-(phosphonomethyl)-pentandioic acid (PMPA) solution (100 μM in PBS, 25 μL) for blockade. Afterwards, the ^18F-labeled SiFA-PSMA ligand (5 nM in PBS, 25 μL) was added and the cells were incubated for 1 h at 37° C. The experiment was terminated by placing the 24-well plate on ice for 3 min and removal of the assay medium. Each well was rinsed with HBSS (4° C., 250 μL) and the fractions were combined with the previous assay medium, representing the amount of unbound radioligand. For removal of surface bound activity, LNCaP cells were incubated with PMPA solution (10 μM in PBS, 4° C., 250 μL) for 5 min and rinsed again with PBS (250 μL, 4° C.). The internalized activity was determined by incubation of LNCaP cells with 1 M aq. NaOH (250 μL) for at least 10 min and combination with the fraction of a subsequent wash step with 1 M aq. NaOH (200 μL). Each experiment (control and blockade) was performed in triplicate. […] All internalization studies were accompanied by reference studies using the reference compound XII (2 nM in HBSS add. 1% BSA, v/v), which were performed analogously. Data were corrected for non-specific internalization and normalized to the specific-internalization observed for the radioiodinated reference compound.

[5] = molecular target: T2, human serum albumin (HSA) (Homo sapiens, UniProt P02768); assay: Binding to HSA on a Chiralpak HSA column; type: in vitro ADME; details: calibration with nine reference substances
T2 construct: purchased H13H-2433
T2 sequence (P02768 25-609): as the sequence (P02768 25-609) above
Description: For the determination of human serum albumin (HSA) binding, a Chiralpak HSA column (50×3 mm, 5 μm, H13H-2433) was used at a constant flow rate of 0.5 mL/min. The mobile phase composed of a 50 mM NH4OAc solution in water with pH=7 (solvent C) and isopropanol (solvent D) was freshly prepared for each experiment and used only once. The reference substances (Table 1) as well as the analyzed SiFA-PSMA ligands were dissolved in a mixture of solvent C/solvent D (1:1, v/v, 0.5 mg/mL) and eluted from the HSA column (0-3 min: 100% C, 3-20 min: 20% D in C, λ=254 nm). The column was kept at rt and each run was stopped after detection of the signal to reduce the acquisition time. The nine reference substances display an HSA binding range of 13% to 99% and were injected consecutively in order to establish a sigmoidal calibration curve with the software OriginPro 2018b (FIG. 1).

[6] = radiolabeled established inhibitors; literature; cited from earlier work
[7] = molecular target: T1, PSMA; details: PSMA binding affinity; literature; cited from earlier work
[8] = Wangler et al. 2010; cited from earlier work
[9] = LNCaP cells (150.000 cells/well), reference [125I]XII c = 0.2 nM, 1 h, 4° C., HBSS add. 1% BSA, mean ± SD (n = 3)

Compound	IC50 [2, 9]	logD7.4 [3]	Internalization [4]	Binding to HSA [5]	further results
Nc1ccccc1 [Aniline]					Lit. HSA binding [1]: 14.06%; Log K HSA [1]: −0.7912
OCc1ccccc1 [Benzyl alcohol]					Lit. HSA binding [1]: 13.15%; Log K HSA [1]: −0.8248
COc1ccc(Cl)cc1C(=O)NCCc1ccc(S(=O)(=O)NC(=O)NC2CCCCC2)cc1 [Glibenclamide]					Lit. HSA binding [1]: 99.00%; Log K HSA [1]: 1.695
Oc1ccccc1 [Phenol]					Lit. HSA binding [1]: 20.69%; Log K HSA [1]: −0.589
CC(C)(C)[Si](F)(c1ccc(C(=O)NC[C@@H](NC(=O)[C@@H](CN)NC(=O)[C@@H](CCC(=O)O)NC(=O)[C@H](N)CCC(=O)O)C(=O)N[C@H](CCCCNC(=O)CCC(=O)NCCC[C@@H](NC(=O)CC[C@H](NC(=O)N[C@@H](CCC(=O)O)C(=O)O)C(=O)O)C(=O)O)C(=O)O)cc1)C(C)(C)C [SiFA-PSMA ligand 03 d] (H-[dE][dE][dDap][dDap](Benzoyl(4-SiFtBu2))[dK]([Suc-X1])-OH)	9.1 ± 0.8 nM	−3.42 ± 0.05	171.82 ± 9.57%	97.2%	
CC(C)(C)[Si](F)(c1ccc(C(=O)NC[C@@H](NC(=O)[C@@H](CCCN)NC(=O)[C@@H](CCC(=O)O)NC(=O)[C@H](N)CCC(=O)O)C(=O)N[C@H](CCCCNC(=O)CCC(=O)NCCC[C@@H](NC(=O)CC[C@H](NC(=O)N[C@@H](CCC(=O)O)C(=O)O)C(=O)O)C(=O)O)C(=O)O)cc1)C(C)(C)C [SiFA-PSMA ligand 03 e] (H-[dE][dE][dOrn][dDap](Benzoyl(4-SiFtBu2))[dK]([Suc-X1])-OH)	8.5 ± 1.2 nM	−3.40 ± 0.17	111.98 ± 3.90%	97.5%	
CC(C)(C)[Si](F)(c1ccc(C(=O)NC[C@@H](NC(=O)[C@@H](CCCCN)NC(=O)[C@@H](CCC(=O)O)NC(=O)[C@H](N)CCC(=O)O)C(=O)N[C@H](CCCCNC(=O)CCC(=O)NCCC[C@@H](NC(=O)CC[C@H](NC(=O)N[C@@H](CCC(=O)O)C(=O)O)C(=O)O)C(=O)O)C(=O)O)cc1)C(C)(C)C [SiFA-PSMA ligand 03 f] (H-[dE][dE][dK][dDap](Benzoyl(4-SiFtBu2))[dK]([Suc-X1])-OH)	6.9 ± 1 nM	−3.43 ± 0.02	94.24 ± 6.01%	96.9%	
CC(C)(C)[Si](F)(c1ccc(C(=O)NC[C@@H](NC(=O)CNC(=O)[C@@H](CCC(=O)O)NC(=O)[C@H](N)CCC(=O)O)C(=O)N[C@H](CCCCNC(=O)CCC(=O)NCCC[C@@H](NC(=O)CC[C@H](NC(=O)N[C@@H](CCC(=O)O)C(=O)O)C(=O)O)C(=O)O)C(=O)O)cc1)C(C)(C)C [SiFA-PSMA ligand 03 g]	11.9 ± 2 nM	−3.56 ± 0.04	121.44 ± 3.72%	98.4%	
C[C@H](O)[C@@H](NC(=O)[C@@H](CCC(=O)O)NC(=O)[C@H](N)CCC(=O)O)C(=O)N[C@H](CNC(=O)c1ccc([Si](F)(C(C)(C)C)C(C)(C)C)cc1)C(=O)N[C@H](CCCCNC(=O)CCC(=O)NCCC[C@@H](NC(=O)CC[C@H](NC(=O)N[C@@H](CCC(=O)O)C(=O)O)C(=O)O)C(=O)O)C(=O)O [SiFA-PSMA ligand 03 h] (H-[dE][dE][dT][dDap](Benzoyl(4-SiFtBu2))[dK]([Suc-X1])-OH)	10.7 ± 2.1 nM	−3.66 ± 0.03	107.42 ± 3.66%	97.8%	
CC(C)(C)[Si](F)(c1ccc(C(=O)NC[C@@H](NC(=O)[C@@H](Cc2ccccc2)NC(=O)[C@@H](CCC(=O)O)NC(=O)[C@H](N)CCC(=O)O)C(=O)N[C@H](CCCCNC(=O)CCC(=O)NCCC[C@@H](NC(=O)CC[C@H](NC(=O)N[C@@H](CCC(=O)O)C(=O)O)C(=O)O)C(=O)O)C(=O)O)cc1)C(C)(C)C [SiFA-PSMA ligand 03 i] (H-[dE][dE][dF][dDap](Benzoyl(4-SiFtBu2))[dK]([Suc-X1])-OH)	20.6 ± 1.8 nM	−2.30 ± 0.03	50.33 ± 2.97%	98.9%	
CC(C)(C)[Si](F)(c1ccc(C(=O)NC[C@@H](NC(=O)[C@H](N)CNC(=O)[C@@H](CCC(=O)O)NC(=O)[C@H](N)CCC(=O)O)C(=O)N[C@H](CCCCNC(=O)CCC(=O)NCCC[C@@H](NC(=O)CC[C@H](NC(=O)N[C@@H](CCC(=O)O)C(=O)O)C(=O)O)C(=O)O)C(=O)O)cc1)C(C)(C)C [SiFA-PSMA ligand 04]		−3.33 ± 0.11	124.49 ± 2.61%	97.9%	IC50 [2]: 12.2 ± 1.9 nM
CC(C)(C)[Si](F)(c1ccc(C(=O)NC[C@@H](NC(=O)[C@@H](CCCNC(N)=O)NC(=O)[C@@H](CCCNC(N)=O)NC(=O)[C@H](N)CCCNC(N)=O)C(=O)N[C@H](CCCCNC(=O)CCC(=O)NCCC[C@@H](NC(=O)CC[C@H](NC(=O)N[C@@H](CCC(=O)O)C(=O)O)C(=O)O)C(=O)O)C(=O)O)cc1)C(C)(C)C [SiFA-PSMA ligand 05] (H-[dCit][dCit][dCit][dDap](Benzoyl(4-SiFtBu2))[dK]([Suc-X1])-OH)		−3.17 ± 0.02	90.13 ± 6.13%	95.7%	IC50 [2]: 16.2 ± 2 nM
CC(C)(C)[Si](F)(c1ccc(C(=O)N[C@H](CC(=O)N[C@H](CCCCNC(=O)CCC(=O)NCCC[C@@H](NC(=O)CC[C@H](NC(=O)N[C@@H](CCC(=O)O)C(=O)O)C(=O)O)C(=O)O)C(=O)O)C(=O)N[C@H](CCCCNC(=O)CCC(=O)NCCC[C@@H](NC(=O)CC[C@H](NC(=O)N[C@@H](CCC(=O)O)C(=O)O)C(=O)O)C(=O)O)C(=O)O)cc1)C(C)(C)C [SiFA-PSMA ligand 06]		−3.77 ± 0.04	270.03 ± 16.10%	≥98.9%	IC50 [2]: 7.4 ± 1.9 nM
O=C(O)CC[C@H](NC(=O)N[C@@H](CCCCNC(=O)[C@H](Cc1ccc2ccccc2c1)NC(=O)[C@H]1CC[C@H](CNC(=O)CN2CCN(CC(=O)O)CCN(CC(=O)O)CCN(CC(=O)O)CC2)CC1)C(=O)O)C(=O)O [[^68Ga]PSMA-617, PSMA-617, metal not drawn]					logP(o/w) [6]: −4.30 ± 0.10
O=C(O)CC[C@H](NC(=O)N[C@@H](CCCCNC(=O)c1ccc([18F])nc1)C(=O)O)C(=O)O [[^natF/^18F]DCFPyI, DCFPyI]					logP(o/w) [6]: −3.4
PSMA-1007 [[^natF/^18F]PSMA-1007]					logP(o/w) [6]: −1.6; IC50 [7]: 4.2 ± 0.5 nM
SiFA-Asn(AcNH-β-Glc)-PEG-Tyr^3-octreotate					log P(ow) [8]: 0.96
